Molecules are shown by their SMILES. Entries after “also recorded” stand apart in the source; their conditions may differ. Where two headings read alike, the source gives them in different places.

In general, EC50 refers to the concentration at which the effect is half-maximal.

One experiment concerns J774.2 macrophages. Briefly: Nitrite production in immunostimulated J774.2 macrophages (E.coli LPS + murine gamma-interferon, 24 h). In kind it is cell-based, mouse. The settings on record: for activity at 1 µM / activity at 3.16 µM / activity at 10 µM / activity at 31.6 µM / activity at 100 µM / activity at 1000 µM / EC50: Mus musculus; for activity at 1 µM / activity at 3.16 µM / activity at 10 µM / activity at 31.6 µM / activity at 100 µM / activity at 1000 µM: J774.2, 24 h, read-out: NITRITE (% OF CONTROL); for activity at 1000 µM: inhibitor concentration -3.000 log M (Table 3). The protocol: This example illustrates the effect of selected mercapto and seleno derivatives on nitrite production in J774.2 immunostimulated macrophages. The J774.2 mouse macrophage cell line was obtained from the ATCC and was cultured in DMEM with 4×10^-3 M L-glutamine and 10% fetal calf serum. Cells were cultured in 96-well plates with 200 μl culture medium until they reached 60-80% confluence. To induce INOS, fresh culture medium containing E.coli LPS (10 μg/ml) and murine gamma-interferon (IFN)(50 U/ml) was added. Nitrite accumulation in the cell culture medium in the absence or presence of various inhibitors was measured after 24 hours. Nitrite production, an indicator of NO synthesis, was measured in the supernatant of J774.2 macrophages by the Greiss reaction as described in Example 1 above.
This Example illustrates the effect of selected seleno derivatives on endotoxin-induced nitrite formation in J774.2 macrophages. The mouse macrophage cell line J774.2 obtained from the ATCC was cultured in DMEM with 4×10^-3 M L-glutamine and 10% fetal calf serum. Cells were cultured in 96-well plates with 200 μl culture medium until they reached 60-80% confluence. To induce iNOS, fresh culture medium containing E.coli LPS (10 μg/ml) and murine gamma-interferon (IFN)(50 U/ml) were added. Nitrite accumulation in the cell culture medium in the absence or presence of various inhibitors was measured after 24 hours. There was no detectable nitrite production by the J774.2 macrophages in the absence of immunostimulation. However, in the presence of IFN and LPS, nitrite concentration of the medium increased to 17±2 μM in the absence of inhibitor.

The target in experiment [1] is T1, iNOS (Rattus norvegicus, UniProt Q06518). In words: Inhibition of iNOS activity in tissue homogenates (Table 2). In kind it is biochemical. Also noted: bNOS in tissue homogenates; from tissue; host or cells: tissue homogenate. The settings on record: for EC50: iNOS (Table 2).
The target in the next experiment is T2, bNOS (Rattus norvegicus, UniProt P29476).
T2 construct: bNOS activity was measured using similar methods in homogenates of whole rat brains; from tissue; host or cells: homogenate of whole rat brains
Briefly: bNOS activity in homogenates of whole rat brains. It counts as biochemical.

Another experiment has as its target T3, ecNOS (Bos taurus, UniProt P29473).
T3 construct: the intimal surface of fresh bovine aortae was scraped and homogenized; from tissue; host or cells: homogenate of intimal scrapings of fresh bovine aortae
In words: ecNOS activity from intimal scrapings of fresh bovine aortae (conversion of [3H]-L-arginine to [3H]-L-citrulline). It counts as biochemical. The protocol:
The intimal surface of fresh bovine aortae was scraped in the presence of homogenation buffer composed of 50 mM Tris-HCl, 0.1 mM ethylenediamine tetraacetic acid (EDTA) and 0.1 mM ethyleneglycol bis (beta-aminoethyl ether) (EGTA). Conversion of [^3 H]-L-arginine to [^3 H]-L-citrulline was measured in the homogenates as follows: cell homogenate (50 μl) was incubated in the presence of [^3 H]-L-arginine (10 μM, 5 kBq/tube), NADPH (2 mM), calmodulin (30 nM), tetrahydrobiopterin (5 μM) and calcium (2 mM) for 20 minutes at 37° C. in N-2-hydroxethyl piperazine-N-2-ethane sulfonic acid (HEPES) buffer (pH 7.5). Reactions were stopped by dilution with 1 ml of ice cold HEPES buffer (pH 5.5) containing EGTA (2 mM) and EDTA (2 mM). Reaction mixtures were applied to Dowex 50W (Na^+ form) columns and the eluted [^3 H]-L-citrulline activity was measured by scintillation counting. bNOS activity was measured using similar methods in homogenates of whole rat brains.
For a preparation rich in ecNOS, the intimal surface of fresh bovine aortae was scraped and homogenized. The homogenization buffer was composed of 50 mM tris-HCL, 0.1 mM EDTA, 0.1 mM EGTA and 1 mM phenylmethylsulfonyl chloride (pH 7.4). Cell suspensions were homogenized in the homogenization buffer on ice using a Tissue Tearor 985-370 homogenizer (BioSpec Products, Racine, Wis.). Conversion of [^3 H]-L-arginine to [^3 H]-L-citrulline was measured in the homogenates as described in Example 3 above.

The test system of a further experiment is J774 macrophages. Briefly: Nitrite production by immunostimulated J774 macrophages (endotoxin 24 h, Griess). In kind it is cell-based, mouse. The settings on record: for EC50: Mus musculus, J774, endotoxin 10 μg/ml, 24 h (Table 1), read-out: EC50 for the inhibition of nitrite production by stimulated J774 macrophages. As for the experimental part:
This example illustrates the effect of selected mercapto derivatives on endotoxin-induced nitrite formation in J774.2 macrophages and on IL-1 gamma-interferon induced nitrite formation in cultured rat arctic smooth muscle cells. J774 macrophage cell lines were obtained from the American Type Culture Collection (ATCC) and were grown using standard methods in Dulbecco's Modified Eagle Medium (DMEM) supplemented with 10% fetal bovine serum, glutamine, penicillin (10,000 U/l) and streptomycin (10,000 U/l). Rat aortic smooth muscle cells (RASM) from Wistar rats were isolated by enzymatic dissociation using standard methods. The cells were positively identified as smooth muscle by indirect immunofluorescent staining for a-actin, using mouse anti-α-actin antibody and anti-mouse IgG fluorescein isothiocyanate (FITC) conjugate. RASM cells were grown in T-75 tissue culture flasks in 50% F12 nutrient medium and 50% Dulbecco's Modified Eagle Medium supplemented with 10% fetal bovine serum, glutamine, penicillin (10,000 U/l) and streptomycin (10,000 U/l). Cells were grown in 96-well plates for measure of nitrite production and cell viability. J774 macrophages were treated with endotoxin (10 μg/ml) for 24 hours; smooth muscle cells were treated with IL-1 (100 U/ml) and gamma-interferon (50 U/ml) for 48 hours.
Concentration of nitrite, the degradation product of NO in the culture medium, was determined by mixing equal volumes of medium with the Griess reagent (1% sulfanilamide/0.1% naphthylethylenediamine dihydrochloride/2.5% H3 PO4). The mixture was incubated for 10 minutes at room temperature to form the chromophore, then optical densities (OD) were determined at 550 nm (OD550). NaNO2 was used as the standard. Spectrophotometric measurements were performed in a dual-wavelength spectrophotometer.
In general terms: The Griess reaction detects nitrite, a stable product of nitric oxide.

The target of experiment [2] is T1, iNOS. Briefly: iNOS activity in lung homogenates from rats treated with bacterial endotoxin. In kind it is biochemical. Further details: Lungs were obtained from rats which had been treated with bacterial endotoxin; from tissue; host or cells: lung homogenate from endotoxin-treated rats. The settings on record: for selectivity for iNOS: iNOS vs ecNOS EC50 values; for inhibition of iNOS activity, in words: lung homogenates, rats treated with endotoxin. As for the experimental part: This Example illustrates the effect of selected mercapto and seleno derivatives on iNOS activity in lung homogenates prepared from rats treated with endotoxin. […] The homogenization buffer was composed of 50 mM tris-HCL, 0.1 mM EDTA, 0.1 mM EGTA and 1 mM phenylmethylsulfonyl chloride (pH 7.4). Cell suspensions were homogenized in the homogenization buffer on ice using a Tissue Tearor 985-370 homogenizer (BioSpec Products, Racine, Wis.).

Setting [3] is: inhibitor concentration -4.000 log M (Table 3).
Setting [4] is: inhibitor concentration -5.000 log M (Table 3).
The mark [5] stands for this setting: inhibitor concentration -6.000 log M (Table 3).
Setting [6] is: ecNOS (Table 2), read-out: EC50 for inhibition of ecNOS activity in tissue homogenates.
Setting [7] is: inhibitor concentration -3.000 log M.
[8] abbreviates: inhibitor concentration -4.000 log M.
The mark [9] stands for this setting: inhibitor concentration -5.000 log M.
Where [10] appears, read: inhibitor concentration -6.000 log M.
The mark [11] stands for this setting: inhibitor concentration -7.000 log M.

T2 sequence (P29476 whole entry): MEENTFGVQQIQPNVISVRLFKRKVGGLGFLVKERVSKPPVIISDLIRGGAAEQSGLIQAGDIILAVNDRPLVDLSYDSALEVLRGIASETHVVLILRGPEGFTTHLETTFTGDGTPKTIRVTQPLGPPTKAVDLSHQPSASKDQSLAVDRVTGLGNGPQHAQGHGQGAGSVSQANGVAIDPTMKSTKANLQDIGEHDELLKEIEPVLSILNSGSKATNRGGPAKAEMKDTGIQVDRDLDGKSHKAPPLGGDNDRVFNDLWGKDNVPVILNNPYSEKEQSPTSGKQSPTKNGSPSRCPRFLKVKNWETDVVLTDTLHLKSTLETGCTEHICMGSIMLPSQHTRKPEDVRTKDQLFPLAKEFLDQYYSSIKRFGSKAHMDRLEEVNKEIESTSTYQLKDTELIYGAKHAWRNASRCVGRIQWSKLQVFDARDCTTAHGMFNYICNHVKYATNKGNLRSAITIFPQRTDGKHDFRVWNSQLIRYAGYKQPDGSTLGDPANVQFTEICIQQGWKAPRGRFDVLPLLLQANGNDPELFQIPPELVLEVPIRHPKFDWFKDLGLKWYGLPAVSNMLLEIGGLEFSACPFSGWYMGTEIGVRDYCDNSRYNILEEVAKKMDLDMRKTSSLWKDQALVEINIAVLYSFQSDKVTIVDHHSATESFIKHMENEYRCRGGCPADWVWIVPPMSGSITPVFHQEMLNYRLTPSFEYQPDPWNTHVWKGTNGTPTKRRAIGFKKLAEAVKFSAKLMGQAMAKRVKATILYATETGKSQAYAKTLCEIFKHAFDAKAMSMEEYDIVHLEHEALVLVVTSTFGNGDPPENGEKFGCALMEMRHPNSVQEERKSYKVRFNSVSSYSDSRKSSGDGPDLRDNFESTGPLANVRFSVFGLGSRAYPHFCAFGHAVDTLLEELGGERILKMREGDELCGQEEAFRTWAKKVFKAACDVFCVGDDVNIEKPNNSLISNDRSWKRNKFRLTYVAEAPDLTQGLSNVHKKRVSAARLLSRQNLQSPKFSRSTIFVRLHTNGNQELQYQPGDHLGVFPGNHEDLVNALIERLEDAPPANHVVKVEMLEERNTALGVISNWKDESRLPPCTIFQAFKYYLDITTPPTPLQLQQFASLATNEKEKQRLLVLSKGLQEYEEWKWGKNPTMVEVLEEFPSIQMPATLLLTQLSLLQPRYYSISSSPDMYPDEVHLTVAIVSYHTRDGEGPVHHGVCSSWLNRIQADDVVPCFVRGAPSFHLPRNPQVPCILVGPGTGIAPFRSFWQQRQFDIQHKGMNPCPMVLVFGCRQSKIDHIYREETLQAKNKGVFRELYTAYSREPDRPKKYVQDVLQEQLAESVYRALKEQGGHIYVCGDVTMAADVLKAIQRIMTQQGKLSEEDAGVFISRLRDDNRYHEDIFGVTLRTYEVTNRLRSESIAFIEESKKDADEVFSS

Consider `NC1=NCC[Se]1` [ASZ, 2-aminoselenazoline], for which the “inhibition of nitrite production, in words” value with J774.2 macrophages (IFN and LPS) was “dose-dependently inhibited nitrite production”. Also, in the experiment on J774.2 macrophages, the activity at 1 µM came to 100%, the activity at 3.16 µM turned out to be 96%, the activity at 10 µM stood at 60% and the activity at 31.6 µM turned out to be 37%. Moreover, the activity at 100 µM with J774.2 macrophages is 14%.

As to `N=C(N)NCCSSCCNC(=N)N` [GED, guanidinoethyldisulfide], in the experiment on J774.2 macrophages (IFN and LPS), the “inhibition of nitrite production, in words” value was “dose-dependent inhibition of nitrite production”. In the experiment on J774.2 macrophages (IFN and LPS), the “potency relative to reference compound L-NMA” value is recorded as “higher than the reference compound L-NMA”. The activity at 1000 µM in the experiment with J774.2 macrophages was 0%. The activity at 100 µM in the experiment with J774.2 macrophages (setting [3]) worked out at 0%. In the experiment with J774.2 macrophages (setting [4]), the activity at 10 µM came out at 7%. Also, the activity at 1 µM in the experiment on J774.2 macrophages (setting [5]) was determined as 36%. For the same compound, the EC50 came to 0.3 µM in the experiment with J774.2 macrophages (J774.2, IFN and LPS, Example 9, read-out: EC50, inhibition of nitrite production); 200 µM on iNOS [1]; 180 µM on bNOS; 630 µM at ecNOS (setting [6]); 1 µM in the experiment with J774 macrophages; 200 µM at iNOS [2] (comparing Tables 4 and 5, read-out: EC50 on iNOS). For the same compound, the “inhibition of ecNOS activity, in words” value against ecNOS is “inhibited ecNOS activity less strongly than the L-NMA”. Besides, the “selectivity for iNOS” value on iNOS [2] is “relative selectivity of SEG and GED for iNOS”. The “iNOS ACTIVITY (%)” value on iNOS [2] (setting [7]) turned out to be 22.000%; at iNOS [2] (setting [8]), 57.000%; at iNOS [2] (setting [9]) it was 100.000%; at iNOS [2] (setting [10]), 100.000%; on iNOS [2] (setting [11]), 100.000%. In addition, at iNOS [2], the “inhibition of iNOS activity, in words” value is listed as “somewhat similar in their inhibitory effect on INOS activity”.

On to `N=C(NCCC[C@H](N)C(=O)O)N[N+](=O)[O-]` [L-NA, N^G -Nitro-L-arginine, reference compound], for which the EC50 is 300 µM on iNOS [1] and around 1000 µM with J774 macrophages.

Consider `CCSCCNC(=N)N` [S-ethyl-MEG], for which the “inhibition of iNOS activity, in words” value on iNOS [1] is “relative potent inhibitors of iNOS activity”. For the same compound, the EC50 worked out at 30 µM on iNOS [1], 460 µM at bNOS, 850 µM at ecNOS (setting [6]) and 328 µM in the experiment with J774 macrophages. Also, at ecNOS, the “inhibition of ecNOS activity, in words” value is listed as “less potent on ecNOS”. The “inhibition of nitrite production/accumulation, in words” value in the experiment on J774 macrophages (immunostimulated J774 macrophages) is reported as “inhibitors of nitrite accumulation”.

For `CSCCNC(=N)N` [S-methyl-MEG, S-methyl-mercaptoethylguanidine], the EC50 at iNOS [1] was found to be 1.4 µM; on bNOS it was 8 µM; at ecNOS (setting [6]), 43 µM; in the experiment on J774 macrophages it was 80 µM.

As for `N=C(N)NCC[SeH]` [SEG, selenoethylguanidine], the “inhibition of nitrite production, in words” value with J774.2 macrophages (IFN and LPS) is recorded as “dose-dependent inhibition of nitrite production; also recorded: dose-dependently inhibited nitrite production”. Moreover, in the experiment with J774.2 macrophages (IFN and LPS), the “potency relative to reference compound L-NMA” value was “higher than the reference compound L-NMA”. Besides, the activity at 1000 µM in the experiment on J774.2 macrophages is 0%. The activity at 100 µM was found to be 7% in the experiment on J774.2 macrophages (setting [3]) and 14% in the experiment on J774.2 macrophages (inhibitor concentration -4 log M (Table 6)). The activity at 31.6 µM with J774.2 macrophages (inhibitor concentration -4.5 log M (Table 6)) is 28%. In addition, the activity at 10 µM in the experiment on J774.2 macrophages (setting [4]) and in the experiment on J774.2 macrophages (inhibitor concentration -5 log M (Table 6)) was 50% in each case. For the same compound, the activity at 3.16 µM with J774.2 macrophages (inhibitor concentration -5.5 log M (Table 6)) was 94%. Besides, the activity at 1 µM with J774.2 macrophages (setting [5]) came to 90%; in the experiment with J774.2 macrophages (inhibitor concentration -6 log M (Table 6)) it was 100%. Also, the EC50 with J774.2 macrophages (J774.2, read-out: EC50, inhibition of nitrite production) came out at 10 µM; on ecNOS, 600 µM; at iNOS [2], 10 µM. Moreover, the “inhibition of ecNOS activity, in words” value at ecNOS is given as “inhibited ecNOS activity less strongly than the L-NMA”. Besides, the “selectivity for iNOS” value on iNOS [2] is “relative selectivity of SEG and GED for iNOS”. Further, the “iNOS ACTIVITY (%)” value at iNOS [2] (setting [7]) is 0.0000%; at iNOS [2] (setting [8]), 15.000%; at iNOS [2] (setting [9]), 56.000%; at iNOS [2] (setting [10]) it was 86.000%; on iNOS [2] (setting [11]), 100.000%. Also, the “inhibition of iNOS activity, in words” value against iNOS [2] is “inhibits iNOS activity, more strongly”.

Take `N=C(N)NCCC[SeH]` [SPG, selenopropylguanidine]: the “inhibition of nitrite production, in words” value in the experiment with J774.2 macrophages (IFN and LPS) is listed as “dose-dependently inhibited nitrite production”. Also, in the experiment with J774.2 macrophages, the activity at 1 µM was found to be 100%, the activity at 3.16 µM worked out at 73%, the activity at 10 µM came to 11% and the activity at 31.6 µM was determined as 4%. Further, the activity at 100 µM in the experiment with J774.2 macrophages turned out to be 0%.

Source of the values: US5929063A, “Mercapto and seleno derivatives as inhibitors of nitric oxide synthase” (priority 1995, dated 1999).
